Experimental data reported in US10519154B2, “7-substituted 1-pyridyl-naphthyridine-3-carboxylic acid amides and use thereof” (Bayer Pharma Aktiengesellschaft, priority 2016, dated 2019).

Target: T1, human M2 receptor (Homo sapiens, UniProt P08172)
T1 sequence (P08172 1-466): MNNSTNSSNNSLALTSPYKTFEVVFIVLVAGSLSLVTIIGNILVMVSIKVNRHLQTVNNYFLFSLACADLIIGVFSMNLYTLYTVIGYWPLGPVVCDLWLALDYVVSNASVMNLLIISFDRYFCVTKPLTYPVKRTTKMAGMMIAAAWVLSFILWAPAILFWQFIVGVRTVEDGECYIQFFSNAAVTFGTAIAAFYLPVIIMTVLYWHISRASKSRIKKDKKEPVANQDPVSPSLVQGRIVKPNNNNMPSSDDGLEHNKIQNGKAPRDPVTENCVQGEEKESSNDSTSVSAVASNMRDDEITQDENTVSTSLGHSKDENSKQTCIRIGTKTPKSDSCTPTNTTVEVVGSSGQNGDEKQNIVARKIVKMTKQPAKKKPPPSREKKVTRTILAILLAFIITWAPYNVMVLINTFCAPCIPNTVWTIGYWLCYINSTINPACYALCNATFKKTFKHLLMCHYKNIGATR
Assay: Functional M2-GIRK1/4 activation test: allosteric potency (EC50) and efficiency
Details: for EC50: Receptor activity EC50, CHO-DUKX-M2-GIRK cells, acetylcholine at EC20, in some cases mean of two or more determinations; for Emax: read-out: Efficiency, boosting of the acetylcholine effect at EC20 acetylcholine concentration; for Emax / Efficiency: CHO-DUKX-M2-GIRK cells; for Efficiency: boosting of the acetylcholine effect at EC20 acetylcholine concentration

EC50 [µM]	Emax [%]	Efficiency [%]	Compound
0.025	95.5	–	O=C(NC(c1cccc(F)c1)C(F)(F)F)c1cn(-c2ncc(F)cc2F)c2nc(N3C[C@@H](O)CC3=O)ccc2c1=O (stereo partly drawn) [Example 10, 1-(3,5-Difluoropyridin-2-yl)-7-[(4S)-4-hydroxy-2-oxopyrrolidin-1-yl]-4-oxo-N-[2,2,2-trifluoro-1-(3-fluorophenyl)ethyl]-1,4-dihydro-1,8-naphthyridine-3-carboxamide]
0.32	99	–	O=C(N[C@H](C1CC1)C(F)(F)F)c1cn(-c2ncc(F)cc2F)c2nc(N3CCN(CCO)C3=O)ccc2c1=O [Example 121, N-[(1R)-1-Cyclopropyl-2,2,2-trifluoroethyl]-1-(3,5-difluoropyridin-2-yl)-7-[3-(2-hydroxyethyl)-2-oxoimidazolidin-1-yl]-4-oxo-1,4-dihydro-1,8-naphthyridine-3-carboxamide]
0.014	100	–	CC(C)C[C@@H](NC(=O)c1cn(-c2ncc(F)cc2F)c2nc(N3C[C@@H](O)CC3=O)ccc2c1=O)C(F)(F)F [Example 74, 1-(3,5-Difluoropyridin-2-yl)-7-[(4S)-4-hydroxy-2-oxopyrrolidin-1-yl]-4-oxo-N-[(2R)-1,1,1-trifluoro-4-methylpentan-2-yl]-1,4-dihydro-1,8-naphthyridine-3-carboxamide]
0.36	100	–	O=C(NC1(C(F)(F)F)CCC1)c1cn(-c2ncc(F)cc2F)c2nc(N3C[C@@H](O)[C@H](O)C3)ccc2c1=O [Example 155, 1-(3,5-Difluoropyridin-2-yl)-7-[(3R,4R)-3,4-dihydroxypyrrolidin-1-yl]-4-oxo-N-[1-(trifluoromethyl)cyclobutyl]-1,4-dihydro-1,8-naphthyridine-3-carboxamide]
0.087	98	–	CC(C)(C)[C@@H](NC(=O)c1cn(-c2ncc(F)cc2F)c2nc(N3CCN(CCO)C3=O)ccc2c1=O)C(F)(F)F [Example 126, 1-(3,5-Difluoropyridin-2-yl)-7-[3-(2-hydroxyethyl)-2-oxoimidazolidin-1-yl]-4-oxo-N-[(2R)-1,1,1-trifluoro-3,3-dimethylbutan-2-yl]-1,4-dihydro-1,8-naphthyridine-3-carboxamide]
0.155	90.5	–	O=C(NC(CC(F)(F)F)C(F)(F)F)c1cn(-c2ncc(F)cc2F)c2nc(N3C[C@@H](O)[C@H](O)C3)ccc2c1=O (stereo partly drawn) [Example 160, 1-(3,5-Difluoropyridin-2-yl)-7-[(3R,4R)-3,4-dihydroxypyrrolidin-1-yl]-N-[1,1,1,4,4,4-hexafluorobutan-2-yl]-4-oxo-1,4-dihydro-1,8-naphthyridine-3-carboxamide]
0.15	89	–	CC1C(O)C2(CC2)C(=O)N1c1ccc2c(=O)c(C(=O)N[C@@H](C3CC3)C(F)(F)F)cn(-c3ncc(F)cc3F)c2n1 (stereo partly drawn) [Example 115, N-[(1S)-1-Cyclopropyl-2,2,2-trifluoroethyl]-1-(3,5-difluoropyridin-2-yl)-7-[7-hydroxy-6-methyl-4-oxo-5-azaspiro[2.4]hept-5-yl]-4-oxo-1,4-dihydro-1,8-naphthyridine-3-carboxamide]
0.015	100	–	CC(C)C[C@@H](NC(=O)c1cn(-c2ncc(F)cc2F)c2nc(N3C[C@@H](O)[C@H](O)C3)ccc2c1=O)C(F)(F)F [Example 81, 1-(3,5-Difluoropyridin-2-yl)-7-[(3R,4R)-3,4-dihydroxypyrrolidin-1-yl]-4-oxo-N-[(2R)-1,1,1-trifluoro-4-methylpentan-2-yl]-1,4-dihydro-1,8-naphthyridine-3-carboxamide]
0.315	92	–	CC[C@H](NC(=O)c1cn(-c2ncc(F)cc2F)c2nc(N3CC(O)C3)ccc2c1=O)C(F)(F)F [Example 133, 1-(3,5-Difluoropyridin-2-yl)-7-(3-hydroxyazetidin-1-yl)-4-oxo-N-[(2S)-1,1,1-trifluorobutan-2-yl]-1,4-dihydro-1,8-naphthyridine-3-carboxamide]
0.64	89	–	CC[C@@H](NC(=O)c1cn(-c2ncccc2Cl)c2nc(N3CC4CC4(O)C3)ccc2c1=O)C(F)(F)F (mixture of isomers) [Example 47, 1-(3-Chloropyridin-2-yl)-7-[1-hydroxy-3-azabicyclo[3.1.0]hex-3-yl]-4-oxo-N-[(2R)-1,1,1-trifluorobutan-2-yl]-1,4-dihydro-1,8-naphthyridine-3-carboxamide]
0.045	90	–	CC[C@@H](NC(=O)c1cn(-c2ncc(F)cc2F)c2nc(N3CCCC(F)(F)C3)ccc2c1=O)C(F)(F)F [Example 72, 7-(3,3-Difluoropiperidin-1-yl)-1-(3,5-difluoropyridin-2-yl)-4-oxo-N-[(2R)-1,1,1-trifluorobutan-2-yl]-1,4-dihydro-1,8-naphthyridine-3-carboxamide]
0.059	–	98.00	CC1CC(=O)N(c2ccc3c(=O)c(C(=O)N[C@H](C4CC4)C(F)(F)F)cn(-c4ncc(F)cc4F)c3n2)C1 (single isomer, unassigned) [Example 29]
0.021	99	–	O=C(N[C@H](C1CC1)C(F)(F)F)c1cn(-c2ncc(F)cc2F)c2nc(N3CC4CC4(O)C3)ccc2c1=O (mixture of isomers) [Example 37, N-[(1R)-1-Cyclopropyl-2,2,2-trifluoroethyl]-1-(3,5-difluoropyridin-2-yl)-7-[1-hydroxy-3-azabicyclo[3.1.0]hex-3-yl]-4-oxo-1,4-dihydro-1,8-naphthyridine-3-carboxamide]
0.088	100	–	CC(C)(NC(=O)c1cn(-c2ncc(F)cc2F)c2nc(N3CCCC[C@@H]3CO)ccc2c1=O)C(F)(F)C(F)(F)F [Example 173, 1-(3,5-Difluoropyridin-2-yl)-7-[(2R)-2-(hydroxymethyl)piperidin-1-yl]-4-oxo-N-(3,3,4,4,4-pentafluoro-2-methylbutan-2-yl)-1,4-dihydro-1,8-naphthyridine-3-carboxamide]
0.083	100	–	CC(C)(NC(=O)c1cn(-c2ncc(F)cc2F)c2nc(N3CCC(O)(CO)CC3)ccc2c1=O)C(F)(F)C(F)(F)F [Example 174, 1-(3,5-Difluoropyridin-2-yl)-7-[4-hydroxy-4-(hydroxymethyl)piperidin-1-yl]-4-oxo-N-(3,3,4,4,4-pentafluoro-2-methylbutan-2-yl)-1,4-dihydro-1,8-naphthyridine-3-carboxamide]
0.048	90.5	–	O=C(N[C@H](C1CC1)C(F)(F)F)c1cn(-c2ncc(F)cc2Cl)c2nc(N3CC4CC4(O)C3)ccc2c1=O (mixture of isomers) [Example 52, 1-(3-Chloro-5-fluoropyridin-2-yl)-N-[(1R)-1-cyclopropyl-2,2,2-trifluoroethyl]-7-[1-hydroxy-3-azabicyclo[3.1.0]hex-3-yl]-4-oxo-1,4-dihydro-1,8-naphthyridine-3-carboxamide]
0.795	100	–	O=C(N[C@@H](C1CC1)C(F)(F)F)c1cn(-c2ncc(F)cc2F)c2nc(N3C[C@H](O)[C@@H](O)C3)ccc2c1=O [Example 61, N-[(1S)-1-Cyclopropyl-2,2,2-trifluoroethyl]-1-(3,5-difluoropyridin-2-yl)-7-[(3S,4S)-3,4-dihydroxypyrrolidin-1-yl]-4-oxo-1,4-dihydro-1,8-naphthyridine-3-carboxamide]
0.91	96	–	O=C(NC1CCC1)c1cn(-c2ncc(F)cc2F)c2nc(N3CCNC3=O)ccc2c1=O [Example 146, N-Cyclobutyl-1-(3,5-difluoropyridin-2-yl)-4-oxo-7-(2-oxoimidazolidin-1-yl)-1,4-dihydro-1,8-naphthyridine-3-carboxamide]
0.505	83	–	CC1(C)C(=O)N(c2ccc3c(=O)c(C(=O)N[C@@H](C4CC4)C(F)(F)F)cn(-c4ncc(F)cc4F)c3n2)C2(CC2)C1O (stereo partly drawn) [Example 33, N-[(1S)-1-Cyclopropyl-2,2,2-trifluoroethyl]-1-(3,5-difluoropyridin-2-yl)-7-[7-hydroxy-6,6-dimethyl-5-oxo-4-azaspiro[2.4]hept-4-yl]-4-oxo-1,4-dihydro-1,8-naphthyridine-3-carboxamide]
0.11	–	99.00	O=C(N[C@H](C1CC1)C(F)(F)F)c1cn(-c2ncccc2F)c2nc(N3CC4C[C@@]4(O)C3)ccc2c1=O (single isomer, unassigned) [Example 137]
0.12	97.5	–	CC(C)C(NC(=O)c1cn(-c2ncc(F)cc2F)c2nc(N3CCNC3=O)ccc2c1=O)C(F)(F)F (racemic) [Example 169, 1-(3,5-Difluoropyridin-2-yl)-4-oxo-7-(2-oxoimidazolidin-1-yl)-N-[1,1,1-trifluoro-3-methylbutan-2-yl]-1,4-dihydro-1,8-naphthyridine-3-carboxamide]
0.17	100	–	O=C(N[C@@H](C1CC1)C(F)(F)F)c1cn(-c2ncc(F)cc2F)c2nc(N3C[C@@H](O)[C@H](O)C3)ccc2c1=O [Example 63, N-[(1S)-1-Cyclopropyl-2,2,2-trifluoroethyl]-1-(3,5-difluoropyridin-2-yl)-7-[(3R,4R)-3,4-dihydroxypyrrolidin-1-yl]-4-oxo-1,4-dihydro-1,8-naphthyridine-3-carboxamide]
